The results in this text go back to a melting point compilation (Tetko et al.; mined from patent text by program, amines drawn as free bases though some values may be those of a salt).

Turning to `O=CC=C(c1ccc(F)cc1)c1ccc(F)cc1`, the melting point (commonly the temperature, or range, at which the solid turns liquid) lay in the range of 56 to 58 °C.
Consider `CCCN(CCCNc1ncc(Cc2ccc(C)nc2)c(=O)[nH]1)c1ccccn1`, for which the melting point lay within 83 to 90 °C.
As for `O=C(NC/C=C\COc1cc(CN2CCCCC2)ccn1)NC1CC1`, the melting point fell in the range of 102 to 104 °C.
For the compound `COc1cc(OC)c2c(=O)c3oc4ccccc4c3oc2c1`, the melting point lay in the range of 261 to 263 °C.
Under `O=C1c2ccccc2C(=O)N1CCN(OCc1ccccc1)C(=S)Nc1c(F)cccc1F` stands 141 to 143 °C; under `O=C(CC=C(Cl)Cl)Oc1ccc([N+](=O)[O-])cc1`, 80 to 90 °C; under `O=C(CCCCOc1ccc(OCc2ccccc2)cc1)C(F)(F)F`, 95.5 to 96 °C.
`CC(O)N1CCC(=C2c3ccccc3C=Cc3ccc(S(=O)(=O)C(F)(F)F)cc32)CC1` (stereo not given) had a melting point of 141 to 144 °C.
As to `O=C(Nc1ccc2ccc(Cl)nc2n1)c1ccccc1`, the melting point is 198 °C.
As to `Cc1sc2c(Br)c3ccccc3c(C3=CC(Br)([N+](=O)[O-])C(OC(Cc4ccccc4)C(=O)O)C=C3)c2c1C` (stereo not given), the melting point lay in the range of 243 to 245 °C.
The compound `COc1ccc2c(c1)NC(=O)C(Cl)CC2` (stereo not given) returned a melting point of 162 to 163 °C.
`CCOC(=O)Cc1c(C)nc(-c2ccccc2)nc1-c1cccc([N+](=O)[O-])c1` returned a melting point of 106 to 108 °C.
The compound `CS(=O)(=O)c1ccc(-c2cnn(CC(F)(F)F)c(=O)c2Nc2ccccc2)cc1` yielded a melting point of 154 to 156 °C.
Consider `COc1cc(C(C)C)c(Oc2cnc(N)nc2N)cc1C#CC1CC1`, for which the melting point lay within 226 to 227 °C.
Consider `CNC(=O)c1cc(N)cc(C(F)(F)F)c1`, for which the melting point is 113 to 115 °C.
`Cc1c(C(=O)O)oc(=O)c2ccccc12` returned a melting point of 248 to 249 °C.
The compound `O=C(O)C1CCC=C(c2ccccc2)C1` (stereo not given) registered a melting point of 77 to 80 °C.
`COc1cccc(CSCCNC(=O)c2c([N+](=O)[O-])cccc2[N+](=O)[O-])c1` came in with a melting point of 69 to 71 °C.
The compound `COC(=O)c1cc(C(=O)c2ncc3ccc(N(C)C(=O)OC(C)(C)C)cn23)ccc1[N+](=O)[O-]` registered a melting point of 55 °C.
The compound `Cc1ccc(CC2CCCN(c3nc(C)c(C(=O)NCc4ccccc4)s3)C2=O)cc1` (stereo not given) gave a melting point of 110 to 113 °C.
The compound `CC(C)(C)C(=O)c1ccc(C(=O)NC(=O)c2ccccc2)cc1` came in with a melting point of 121 to 123 °C.
With `CCCCCCCCCCCCCCCCOc1ccc(C(C)=O)o1`, the melting point lay in the range of 72 to 76 °C.
For the compound `CC(C)NC(=N)NC(=N)NOCCCOc1ccc(OC(F)(F)F)cc1`, the melting point was in the range of 154 to 155 °C.
The compound `Cc1cc2c3c(c1)c1c(n3C(c3ccccc3)CO2)CCCC1=O` (stereo not given) gave a melting point of 171 °C.
The figure for `CN1CCN(c2ccc([N+](=O)[O-])cn2)CC1` is 75 to 76 °C.
As for `O=C1C=CC(O)(c2cc3ccccc3o2)C=C1`, the melting point lay within 106 to 108 °C.
The figure for `Cn1cc(C(=O)NCCC2CCN(S(=O)(=O)NC(=O)NC34CC5CC(CC(C5)C3)C4)CC2)c(=O)n(C)c1=O` is 224 to 226 °C; for `CC(Cl)CC1Oc2ncccc2C(=S)NC1C` (stereo not given) it is 95 to 97 °C; for `COC(=O)C(=O)c1ccccc1Oc1cc(Oc2ccccc2C#N)ncn1` it is 96 to 97 °C.
`CCCCCCCOc1ccc(-c2ccc(N=Nc3ccc([N+](=O)[O-])cc3)cc2)cc1` returned a melting point of 147 to 148 °C.
In turn, `CN1CCN(c2ccccc2C2=NC(C)(C)CO2)C(c2cccs2)C1` (stereo not given) displayed a melting point of 114 to 115 °C.
`COc1cc(-c2ncnc(Cl)c2Cl)c(F)cc1Cl` gave a melting point of 116 to 117 °C.
`N#Cc1c(N2CCOCC2)cccc1[N+](=O)[O-]` had a melting point of 152 to 155 °C.
Under `COc1ccc2c(c1)c(-c1cc3c(C#N)ccnc3[nH]1)cn2C` stands 304 to 305 °C; under `Cc1[nH]cnc1CSCCNc1nnc(Cc2cccnc2)c(=O)[nH]1`, 232 to 233 °C.
The figure for `CCOC(Cc1ccc(OCCN2CCC(C)(C)c3cc(C(=NOC)c4ccccc4)ccc32)cc1)C(=O)O` (stereo not given) is 62 to 64 °C; for `Brc1ccc2c(c1)COCO2` it is 43 to 47 °C; for `CC1(C)COc2ccc(C(F)(F)F)cc2C(O)(c2ccccn2)C1` (stereo not given) it is 116 °C.
The figure for `COC(=O)c1ccc(C(=O)N2CCN(c3ncccc3[N+](=O)[O-])CC2)cc1` is 149 to 152 °C; for `C=CCNc1cnc(-c2ccccc2)c(-c2ccccc2)n1` it is 97 to 100 °C.
In turn, `CCOP(=O)(Cc1ccc(NC(=O)c2cc(=O)c3ccccc3o2)cc1)OCC` displayed a melting point of 153 to 154 °C.
As for `CCOC(=O)c1cn(C)c2cc(F)c(F)cc2c1=O`, the melting point was 210 to 212 °C.
Turning to `CC(Cc1c[nH]c2ccccc12)(NC(=O)OC1C2CC3CC(C2)CC1C3)C(=O)NC(CC(=O)O)Cc1ccccc1` (stereo not given), the melting point lay within 123 to 137 °C.
`CCOC(=O)CCC1OC(n2cc(CC)c(=O)[nH]c2=O)CC1OC(C)=O` (stereo not given) registered a melting point of 137 to 138 °C.
`O=c1[nH]nc(-c2ccc(N3CCCCCC3)c([N+](=O)[O-])c2)c2ccccc12` displayed a melting point of 187 to 189 °C.
`COC(=O)CC1=C(C)Cc2ccc(SC)cc21` showed a melting point of 200 to 210 °C.
On to `Cn1cc(C=C2SC(=S)N(CC(=O)O)C2=O)c2ccccc21`, for which the melting point lay within 282 to 288 °C.
Consider `CCOc1ccc(-c2ccc(S(=O)(=O)NC(C(=O)O)C3CCN(CC(C)C)CC3)s2)cc1` (stereo not given), for which the melting point lay within 220 to 225 °C.
As to `CCCCCCC(C)(C)c1ccc(C2CCCNC2)c(O)c1` (stereo not given), the melting point was 138 to 140 °C.
Turning to `O=C1CN(c2ncc3ncnc(Nc4ccc(F)c(Cl)c4)c3n2)CCN1`, the melting point was in the range of 244 to 246 °C.
With `Cc1nc(C(C)(O)c2cccs2)sc1C` (stereo not given), the melting point fell in the range of 129 to 130 °C.
For the compound `CCCC1=Cc2c3c(c(C)c(C)c2C1=O)OC(C(=O)O)C3` (stereo not given), the melting point came to 212 °C.
Consider `CN1CCC(c2c[nH]c3ccc([N+](=O)[O-])cc23)CC1`, for which the melting point lay within 200 to 202 °C.
Take `CCCN(CCC)[C@@H]1CCc2ccc(C(N)=O)cc2C1`: the melting point worked out at 132 °C.
With `CCOc1ccc2ccccc2c1C(=O)NC(Cc1ccc(C(F)(F)F)cc1)C(=O)c1ccc(F)cc1` (stereo not given), the melting point lay in the range of 188 to 189 °C.
The figure for `O=C(/C=C/c1cc(O)c(O)c([N+](=O)[O-])c1)CCCCC(=O)Nc1ccc(C(F)(F)F)cc1` is 194 to 197 °C; for `O=c1c2cc3ccccc3cc2oc2cc(OCC3CO3)cc(OCC3CO3)c12` (stereo not given) it is 181 to 182 °C; for `Cc1ccc(S(=O)(=O)NN=C2CCCCCCC2)cc1` it is 140 to 143 °C.
The figure for `CCn1cc(C(=O)O)c(=O)c2cc3c(nc21)CCO3` is 292 °C; for `CCOC(=O)c1sc(NC(C)=O)nc1CCc1ccc(NC(=O)OC(C)(C)C)cc1` it is 213 to 214 °C; for `CCOC(=O)CN(C)c1ccc(N=O)cc1` it is 55 to 56 °C.
`COC(=O)c1ccc(C[C@H](NC(=O)OCc2ccccc2)C(=O)O)cc1` had a melting point of 102 to 106 °C.
Regarding `CCn1c(C)nc2cc(C#N)ccc21`, the melting point turned out to be 162 °C.
In turn, `CCCCc1nc(C(C)(C)O)c(C(=O)O)n1Cc1ccc(-c2ccccc2-c2nnn[nH]2)cc1` registered a melting point of 138 to 141 °C.
For the compound `COc1cc(-c2nc3ccccc3n2Cc2cccc(Cl)c2)cc(OC)c1OC`, the melting point is 83 °C.
`CCC(=O)Nc1ccc(OC)cc1OC`: the melting point fell in the range of 63 to 65 °C.
In turn, `CCNC(SC)=C(C#N)C(=O)OC` displayed a melting point of 86 to 88 °C.
`NC(=O)c1c(N)sc(-c2ccc(F)cc2)c1-c1ccccc1` came in with a melting point of 205 to 207 °C.
Under `Cc1cc(Nc2cc(-c3cccc(N4CCc5c(cc6n5CCCC6)C4=O)c3CO)cn(C)c2=O)n[nH]1` stands 199 to 200 °C; under `CCOc1nn(-c2ccc(C(F)(F)F)cn2)cc1CCCCOc1ccccc1CC(=O)O`, 109 to 110 °C.
`N#CC(C#N)CC(CC(F)(F)C(F)(F)C(F)(F)C(F)F)SC(F)(F)F` (stereo not given) showed a melting point of 72 to 74 °C.
On to `Nc1nc2ccccc2c2sc(CO)nc12`, for which the melting point was 247 to 249 °C.
Under `N=c1ccccn1Cc1ccccc1` stands 52 to 54 °C.
`CC(NC(=O)c1cccc(I)c1)C(O)c1ccccc1` (stereo not given) registered a melting point of 139 to 140 °C.
The compound `Clc1ccc(C2=CCN(Cc3n[nH]c4c(Cl)cccc34)CC2)cc1` registered a melting point of 171 to 173 °C.
As to `COCCc1nc2c(N)nc3ccccc3c2n1CCOCCS(C)(=O)=O`, the melting point was in the range of 142 to 144 °C.
For the compound `COC(=O)C(=O)c1ccc(OCCOc2ccc3ccccc3c2)cc1C`, the melting point was in the range of 118 to 120 °C.
The compound `O=C(Cc1ccccc1)OC1c2ccccc2C(=O)N1c1ccc2ccc(Cl)nc2n1` (stereo not given) displayed a melting point of 222 to 224 °C.
As for `Cn1c(Cc2ccccc2)noc1=O`, the melting point is 105 to 107 °C.
In turn, `CCCNc1nc(OC)ccc1[N+](=O)[O-]` showed a melting point of 69 to 70 °C.
Under `CCCCC(CC)COCCCN1C(C)=CC(=C(C#N)C(=O)OCC(CC)CCCC)C=C1C` (stereo not given) stands 69 to 70 °C; under `CNC(=N[N+](=O)[O-])N(Cc1cnc(Cl)s1)C(=O)N(C)C`, 140 °C.
In turn, `O=C1CC(c2cccc(-c3nc(C(=O)NCCO)co3)c2)=Nc2ccc(-n3cccc3)cc2N1` yielded a melting point of 242 to 244 °C.
`Cc1ccccc1C(=NC#N)NC(NC(=O)Cc1ccc(Cl)cc1)C(C)(C)C` (stereo not given) displayed a melting point of 109 to 110 °C.
As for `O=C(O)c1cc(-c2ccc(Cl)cc2)n(Cc2ccc(Cl)cc2Cl)n1`, the melting point was 185 °C.
Compound `COc1ccccc1-c1cc(S(=O)(=O)c2ccc(N)cc2)cc(N2CCCC2)n1` gave a melting point of 217 to 219 °C.
The figure for `O=C(O)CCc1cccc2c1C[C@@H](CCCCc1ccccc1)O2` is 110 to 111 °C; for `CC(C(O)c1ccc2nc(N)sc2c1)N1CCC(Cc2ccccc2)CC1` (stereo not given) it is 197 to 200 °C.
`Cn1cc2c(n1)SSSSS2`: the melting point fell in the range of 94 to 102 °C.
In the case of `CC1(O)c2ccccc2CC12CCC1(CC2)OCCO1` (stereo not given), the melting point is 140 to 143 °C.
